Results: PubChem BioAssay AID2060498 (Molecular Pharmacology Branch, DTP, NCI, 2025)
“And” between values parts separate entries of the source, which are not always exact repeats. Identical values can stand only once.

Tested on: 171881-019-R-J1-PDC tumor spheroids, viability
Assay: Anticancer human tumor 171881-019-R-J1-PDC patient-derived invasive breast carcinoma cell line growth inhibition [GQUAD]
Conditions: spheroids with HUVEC and MSC; for viability, T/C: stronger effect = lower value
Description: DNA G-quadruplex Stabilizer Agents in Combinations in Complex Spheroids
A high-throughput screen of multi-cell type tumor spheroids was designed to identify active combinations of DNA G-quadruplex stabilizer agents and targeted small molecules. Complex spheroids include a stromal component modeled by human endothelial cells (HUVEC) and fibroblasts modeled by human mesenchymal stem cells (MSCs). The concentration ranges selected for each drug and investigational agent were based upon clinically achievable concentrations if the clinical Cmax of the agent was known.
Compounds. The drugs and investigational agents: pidnarulex (CX-5461; NSC782164), APTO-253 (NSC789042), BRACO-19 (NSC847499), peposertib (NSC802822), ceralasertib (NSC780249), elimusertib (NSC800525), camonsertib (NSC841442), AZD-1390 (NSC803789), olaparib (NSC753686), talazoparib (NSC767125), ART-558 (NSC835418), sotorasib (NSC818433), MRTX-1133 (NSC836407), SN-38 (NSC673596), topotecan (NSC609699), etoposide (NSC141540), doxorubicin (NSC123127), gemcitabine (NSC613327), 5-fluorouracil (NSC19893), paclitaxel (NSC125973), vemurafenib (NSC761431), panobinostat (NSC761190), R-306465 (JNJ-16241199; NSC773264), adavosertib (NSC754352), TP-3654 (NSC805149), carboplatin (NSC241240), KSQ-4279 (NSC840948), and staurosporine (NSC755774) were obtained from the National Cancer Institute (NCI) Developmental Therapeutics Program Chemical Repository (34). The FDA-approved anticancer drug set is available from the NCI Developmental Therapeutics Program. […] The stock solutions were prepared in dimethyl sulfoxide (DMSO, Sigma-Aldrich, St. Louis, MO, cat. D2650) at 800-fold the tested concentration and stored at -70 degrees C prior to their use. All drugs and investigational agents were tested over a range starting from a high concentration at or near the clinical Cmax and decreasing in half-log increments. If the clinical Cmax for an agent had not been determined, the highest concentration tested was 10 microM.
2.3 Cell Culture. All cells were maintained in an incubator at 37 degrees C and 5% CO2 with 95% humidity. The PDC lines were cultured according to standard operating procedures established by the NCI PDMR. All PDCs were thawed and cultured in Matrigel-coated flasks prepared with a working solution of 1X Ham's F-12 nutrient mix, without supplementation (Invitrogen, cat. 11765054), 100 U/mL penicillin-streptomycin (Invitrogen, cat. 15140122), and 2.5% Matrigel (Corning Inc., cat. 354248) for the first three passages. The 857933-349-R-J2-PDC line was cultured in 6C/Colon 1B media, which includes advanced DMEM/F-12 (Thermo Fisher Scientific, cat. 12634028), 10 mM HEPES (Thermo Fisher Scientific, cat. 15630080), 1X GlutaMAX supplement (Thermo Fisher Scientific, cat. 35050061), 0.1 mg/mL primocin (InvivoGen, cat. ant-pm-2), 10% defined fetal bovine serum, heat inactivated (HyClone Laboratories Inc., cat. SH30070.03HI), 50% L-WRN conditioned media (ATCC, cat. CRL-3276), 1.25 mM N-Acetyl-L-cysteine (Sigma-Aldrich, cat. A9165), 10 mM nicotinamide (Sigma-Aldrich, cat. N0636), 1X B-27 supplement (Thermo Fisher Scientific, cat. 17504044), 1X N-2 supplement (Thermo Fisher Scientific, cat. 17502048), 10 microM Y-27632 dihydrochloride (Tocris Bioscience, cat. 1254), and 50 ng/mL human EGF recombinant protein (Thermo Fisher Scientific, cat. PHG0311). The 485176-168-R4-J1-PDC line was cultured in Panc media, which includes all 6C/Colon 1B media components plus 100 ng/mL human FGF-10 (Thermo Fisher Scientific, cat. 100-26), 500 nM SB-431542 (Selleckchem, cat. S1067), and gastrin (Tocris, cat. 3006).
[…]
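Further: spheroids exposed to compounds for 7 days.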
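Wherever viability, T/C is given: 100% = DMSO vehicle control viability.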

O=C(NO)c1cnc(N2CCN(S(=O)(=O)c3ccc4ccccc4c3)CC2)nc1
viability, T/C (compound 0.0316 µM): 77.1% and 89.5% and 81.1%
viability, T/C (compound 0.1 µM): 74% and 76.3% and 64.2%
viability, T/C (compound 0.316 µM): 44.3% and 39.6% and 41.4%
viability, T/C (compound 1 µM): 0.86% and 0.61% and 2.4%
viability, T/C (compound 3.16 µM): 0.14% and 0.11% and 0.19%
viability, T/C (compound 10 µM): 0.33% and 0.21% and 0.18%
IC50 (curve of compound): 255 nM and 224 nM and 201 nM

COc1ccc([C@@H](O)c2cc(-c3ncnc4cc(N5CCOCC5)ccc34)c(F)cc2Cl)nn1 + Cc1cnc(CNC(=O)c2c(=O)c3ccc(N4CCCN(C)CC4)nc3n3c2sc2ccccc23)cn1
IC50 (curve of first compound, second compound 0.0316 µM): 405 nM
IC50 (curve of first compound, second compound 0.1 µM): 268 nM
IC50 (curve of first compound, second compound 0.316 µM): 169 nM
IC50 (curve of first compound, second compound 1 µM): 169 nM
IC50 (curve of first compound, second compound 3.16 µM): 112 nM
IC50 (curve of first compound, second compound 10 µM): 103 nM
viability, T/C (second compound 0.0316 µM, first compound 0.0316 µM): 93.2%
viability, T/C (second compound 0.0316 µM, first compound 0.1 µM): 77.1%
viability, T/C (second compound 0.0316 µM, first compound 0.316 µM): 60.5%
viability, T/C (second compound 0.0316 µM, first compound 1 µM): 22.4%
viability, T/C (second compound 0.0316 µM, first compound 3.16 µM): 9.13%
viability, T/C (second compound 0.0316 µM, first compound 10 µM): 5.12%
viability, T/C (second compound 0.1 µM, first compound 0.0316 µM): 75.6%
viability, T/C (second compound 0.1 µM, first compound 0.1 µM): 76%
viability, T/C (second compound 0.1 µM, first compound 0.316 µM): 43.7%
viability, T/C (second compound 0.1 µM, first compound 1 µM): 19.1%
viability, T/C (second compound 0.1 µM, first compound 3.16 µM): 8.81%
viability, T/C (second compound 0.1 µM, first compound 10 µM): 4.57%
viability, T/C (second compound 0.316 µM, first compound 0.0316 µM): 73.1%
viability, T/C (second compound 0.316 µM, first compound 0.1 µM): 58%
viability, T/C (second compound 0.316 µM, first compound 0.316 µM): 40.5%
viability, T/C (second compound 0.316 µM, first compound 1 µM): 17%
viability, T/C (second compound 0.316 µM, first compound 3.16 µM): 9.34%
viability, T/C (second compound 0.316 µM, first compound 10 µM): 6.36%
viability, T/C (second compound 1 µM, first compound 0.0316 µM): 64.9%
viability, T/C (second compound 1 µM, first compound 0.1 µM): 56.8%
viability, T/C (second compound 1 µM, first compound 0.316 µM): 41.8%
viability, T/C (second compound 1 µM, first compound 1 µM): 18%
viability, T/C (second compound 1 µM, first compound 3.16 µM): 10.8%
viability, T/C (second compound 1 µM, first compound 10 µM): 4.62%
viability, T/C (second compound 3.16 µM, first compound 0.0316 µM): 60.7%
viability, T/C (second compound 3.16 µM, first compound 0.1 µM): 49.4%
viability, T/C (second compound 3.16 µM, first compound 0.316 µM): 39.4%
viability, T/C (second compound 3.16 µM, first compound 1 µM): 18.9%
viability, T/C (second compound 3.16 µM, first compound 3.16 µM): 11.2%
viability, T/C (second compound 3.16 µM, first compound 10 µM): 4.88%
viability, T/C (second compound 10 µM, first compound 0.0316 µM): 53.8%
viability, T/C (second compound 10 µM, first compound 0.1 µM): 52.3%
viability, T/C (second compound 10 µM, first compound 0.316 µM): 37.8%
viability, T/C (second compound 10 µM, first compound 1 µM): 21.7%
viability, T/C (second compound 10 µM, first compound 3.16 µM): 11.8%
viability, T/C (second compound 10 µM, first compound 10 µM): 4.99%

Nc1ccn(C2OC(CO)C(O)C2(F)F)c(=O)n1 (stereo not given)
viability, T/C (compound 0.0316 µM): 24% and 35.9% and 25.5%
viability, T/C (compound 0.1 µM): 30.8% and 38.8% and 28.2%
viability, T/C (compound 0.316 µM): 39.4% and 47.6% and 37.4%
viability, T/C (compound 1 µM): 37.8% and 48.4% and 37.6%
viability, T/C (compound 3.16 µM): 35.4% and 45.9% and 35.1%
viability, T/C (compound 10 µM): 31.4% (2×) and 44%
IC50 (curve of compound): < 31.6 nM

CC(=O)O[C@H]1C(=O)[C@@]2(C)[C@H]([C@H](OC(=O)c3ccccc3)[C@]3(O)C[C@H](OC(=O)[C@H](O)[C@@H](NC(=O)c4ccccc4)c4ccccc4)C(C)=C1C3(C)C)[C@]1(OC(C)=O)CO[C@@H]1C[C@@H]2O
viability, T/C (compound 0.0316 µM): 50.5% and 44.8% and 33.4%
viability, T/C (compound 0.1 µM): 32.6% and 33.4% and 25.7%
viability, T/C (compound 0.316 µM): 32% and 29.3% and 21.5%
viability, T/C (compound 1 µM): 29.8% and 26.7% and 22.8%
viability, T/C (compound 3.16 µM): 29.6% and 24.3% and 23.2%
viability, T/C (compound 10 µM): 29.6% (2×) and 24%
IC50 (curve of compound): < 31.6 nM

CC1COCCN1c1cc(C2(O)CC3CCC(C2)O3)c2cnn(-c3ccn[nH]3)c2n1 (stereo not given)
viability, T/C (compound 0.0316 µM): 52.1% and 55.1% and 56%
viability, T/C (compound 0.1 µM): 21.3% and 20.7% and 15.9%
viability, T/C (compound 0.316 µM): 9.11% and 9.51% and 6.18%
viability, T/C (compound 1 µM): 6.21% and 5.84% and 2.3%
viability, T/C (compound 3.16 µM): 4.07% and 4.22% and 1.52%
viability, T/C (compound 10 µM): 3.07% and 3.7% and 0.82%
IC50 (curve of compound): 33.8 nM and 37.4 nM and 37.3 nM
